Assay results: patent US7915263B2, “Aminopyridine derivatives having aurora A selective inhibitory action” (Banyu Pharmaceutical Co., Ltd., priority 2006, dated 2011)

Assays:
[1] = target: T1, His-tagged human Aurora A (Homo sapiens, UniProt O14965); experiment: Aurora A inhibitory activity (IMAP fluorescence polarization); format: biochemical; conditions: 20 μM ATP, 30° C., 120 minutes
T1 construct: made in house; host or cells: Escherichia coli BL21-CodonPlus(DE3)-RIL
T1 sequence (O14965 1-403): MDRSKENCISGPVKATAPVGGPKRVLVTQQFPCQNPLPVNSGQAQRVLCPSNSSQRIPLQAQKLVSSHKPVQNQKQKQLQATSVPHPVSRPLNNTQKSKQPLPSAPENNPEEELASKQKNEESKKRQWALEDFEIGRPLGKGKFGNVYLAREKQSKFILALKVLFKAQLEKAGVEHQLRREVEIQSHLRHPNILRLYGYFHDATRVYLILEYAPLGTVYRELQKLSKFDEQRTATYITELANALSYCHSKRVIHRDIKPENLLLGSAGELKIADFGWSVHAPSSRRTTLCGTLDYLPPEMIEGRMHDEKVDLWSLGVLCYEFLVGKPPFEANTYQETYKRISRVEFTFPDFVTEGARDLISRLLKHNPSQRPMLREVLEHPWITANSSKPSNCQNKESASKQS
From the text: cDNA of N-terminal His-tagged human Aurora A was integrated into an expression vector, which was then highly expressed in Escherichia coli BL21-CodonPlus(DE3)-RIL cells. The Escherichia coli was harvested and lysed, and then the His-tagged human Aurora A protein was applied onto a nickel chelate column and eluted from the column with imidazole. The active fractions were desalted with a desalting column to give a purified enzyme.
Concretely, the phosphorylation reaction and the detection were carried out as follows:
The phosphorylation reaction was conducted using 384 well plate, and the reaction volume was 10 μl/well. The reaction buffer is comprised of 50 mM Tris-chloride buffer (pH 7.4), 15 mM magnesium acetate, and 0.2 mM ethylenediamine-N,N,N′,N′-tetraacetic acid (EDTA). […]
Thereafter, in order to terminate and detect the reaction, 30 μl of the IMAP (registered trademark) binding reagent (IMAP Progressive Binding Reagent, R7284) that had been diluted (1:400) in the 1× IMAP binding buffer A (IMAP Progressive Binding Buffer A, 5× stock, R7282) was added to each well. The solution stood still for 60 minutes in the dark, and then fluorescence polarization was measured using a high-end microplate reader (excitation wavelength: 485 nm; emission wavelength: 520 nm). […]

[2] = target: T2, GST-tagged human Aurora B(AurB)/His-tagged human INCENP complex proteins (Homo sapiens, UniProt Q96GD4); experiment: Aurora B inhibitory activity (Method A, IMAP kit); format: biochemical; conditions: 40 μM ATP, 25° C., 45 minutes
T2 construct: GST; purchased Cama Biosciences, Inc. (so in the source)
Method: Using the same, the phosphorylation reaction was conducted in accordance with a partially revised protocol attached to the kit, and then the phosphorylation of the substrate was detected using the IMAP technology.
For the phosphorylation reaction, 384 well plate was used, and the reaction volume was 10 μl/well. The composition of the reaction buffer (assay buffer) is comprised of 20 mM of HEPES buffer (pH 7.4), 0.01% Tween-20, and 2 mM of dithiothreitol (DTT). Thereto, AurB/INCENP complex protein, 100 nM of the substrate, and 40 μM of ATP, and 1 mM of magnesium salt were added, and then the reaction was conducted at 25° C. for 45 minutes. Thereafter, in order to terminate and detect the reaction, 30 μl of the IMAP (registered trademark) binding reagent (IMAP Progressive Binding Reagent, R7284) that had been diluted (1:400) in the 1× IMAP binding buffer A (IMAP Progressive Binding Buffer A, 5× stock, R7282) was added to each well.
The compound to be tested was added to the reaction system such that a dilution series of the compound in DMSO was prepared, and then 0.5 μL of this solution was added for the testing to each well. Each control well was provided by adding 0.5 μL of DMSO to the well in place of the DMSO solution containing the compound to be tested.

[3] = tested on: Human cervical cancer cells (HeLa S3); experiment: Cell growth inhibitory effect, WST-8 method; format: cell-based; conditions: 72 h, HeLa S3, three days incubation, read-out: Cell growth inhibitory effect (HeLaS3) (IC50)
Method: Fetal calf serum (FCS) was purchased from Moregate Biotech, and DMEM medium was purchased from Invitrogen Corp. WST-8 was purchased from Kishida Chemical Co., Ltd.
(§1) Human cervical cancer cells (HeLa S3) were obtained from the American Type Culture Collection (ATCC).
Cells were suspended in a DMEM medium containing 10% FCS, and the cell suspension was dispensed to a 96-well plastic plate at a rate of 750 cells/100 microliters per well. The plate was incubated overnight in 5% CO2-95% air at 37° C. A drug was subjected to graded dilution in dimethylsulfoxide and further diluted with a DMEM medium containing 10% FCS. Then, the dilution was dispensed to the plate on which cells had been disseminated, at a rate of 100 microliters per well.

[4] = tested on: Human cervical cancer cells (HeLa S3); experiment: Effect by combined use of drugs in cells (docetaxel), WST-8 method; format: cell-based
Method: Fetal calf serum (FCS) was purchased from Moregate Biotech, DMEM medium from Invitrogen Corp., docetaxel (tradename: Taxere) from Sigma-Aldrich, Inc., and WST-8 from Kishida Chemical Co., Ltd.
as §1
Cells were suspended in a DMEM medium containing 10% FCS, and the cell suspension was dispensed to two 96-well plastic plates at a rate of 750 cells/100 microliters per well. The plates were incubated overnight in 5% CO2-95% air at 37° C. A drug was subjected to graded dilution in dimethylsulfoxide and further diluted with DMSO or with a DMEM medium containing 10% FCS and also containing 0.6 nM docetaxel. Then, the dilutions were each dispensed to one of the plates on which cells had been disseminated, at a rate of 100 microliters per well. The final concentration of docetaxel at this stage was 0.3 nM. Also, the concentrations in the case of sole administration of the compound according to the invention were 0.003, 0.01, 0.03, 0.1, 0.3, 1, 3 and 10 μM. The plates were incubated for further three days in 5% CO2-95% air at 37° C. Cell growth after incubation was measured by the WST-8 method (H. Tominaga, et al., Anal. Commun., 36, 47-50 (1999)). Here, the WST-8 method refers to a method in which 20 microliters of a WST-8 reagent solution is added to each well, incubation is conducted at 37° C. for 60 minutes, the plate is stirred, and the amount of formazan produced is measured by a colorimetric method to determine the inhibitory rate of the drug. The growth inhibitory effects of docetaxel and of the compound according to the invention were determined, with the value obtained in sole treatment of DMSO being defined as 0%.

T2 sequence (Q96GD4 whole entry): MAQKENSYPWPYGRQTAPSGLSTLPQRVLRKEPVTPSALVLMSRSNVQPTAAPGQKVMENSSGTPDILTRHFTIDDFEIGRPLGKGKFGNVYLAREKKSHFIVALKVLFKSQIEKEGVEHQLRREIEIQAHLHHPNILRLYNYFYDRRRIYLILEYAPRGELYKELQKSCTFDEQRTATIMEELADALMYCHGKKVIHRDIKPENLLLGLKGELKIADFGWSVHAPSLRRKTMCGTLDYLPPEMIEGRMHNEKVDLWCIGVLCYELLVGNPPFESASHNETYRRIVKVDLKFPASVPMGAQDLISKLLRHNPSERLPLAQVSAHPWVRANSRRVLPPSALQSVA
T2 sequence (Q9NQS7 803-916 partner limits assumed): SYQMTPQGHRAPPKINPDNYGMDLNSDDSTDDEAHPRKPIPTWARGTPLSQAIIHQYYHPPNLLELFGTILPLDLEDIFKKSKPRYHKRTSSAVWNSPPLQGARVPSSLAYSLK

| SMILES | IC50 [1] | IC50 [2] | IC50 [3] | inhibition at 0.1 µM ([4]; Homo sapiens, HeLa S3, compound 0.1 μM alone, read-out: Cell growth inhibitory effect by sole administration of the compound of Example (%)) | inhibition at 0.3 µM ([4]; Homo sapiens, HeLa S3, compound 0.3 μM alone, read-out: Cell growth inhibitory effect by sole administration of the compound of Example (%)) | Cell growth inhibitory effect by combined administration of docetaxel and the compound of Example (%) ([4]; compound 0.1 μM + docetaxel 0.3 nM) | Cell growth inhibitory effect by combined administration of docetaxel and the compound of Example (%) ([4]; compound 0.3 μM + docetaxel 0.3 nM) |
| --- | --- | --- | --- | --- | --- | --- | --- |
| Fc1c(O[C@H]2CC[C@](Cc3cccc(Nc4cc[nH]n4)n3)(c3nncs3)CC2)cccc1C(F)(F)F [Example 27, 6-((trans-4-(2-fluoro-3-(trifluoromethyl)phenoxy)-1-(1,3,4-thiadiazol-2-yl)cyclohexyl)methyl)-N-1H-pyrazol-3-ylpyridin-2-amine] | 2.4 nM | 220 nM | – | – | – | – | – |
| O=c1[nH]nc([C@]2(Cc3cncc(Nc4cc[nH]n4)n3)CC[C@@H](Oc3cccc(Cl)c3F)CC2)o1 [Example 29, 5-(trans-4-(3-chloro-2-fluorophenoxy)-1-((6-(1H-pyrazol-3-ylamino)pyrazin-2-yl)methyl)cyclohexyl)-1,3,4-oxadiazol-2(3H)-one] | 0.19 nM | 670 nM | 670 nM | 11.3% | 39.9% | 79.0% | 92.9% |
